# Source: ChEMBL document CHEMBL1201862, “PubChem BioAssay data set” (2004)
# The source made the active and inactive calls. Rule as the data show it: actives have a measured IC50 and inactives only a lower limit.
# Target: Envelope glycoprotein gp160 (Human immunodeficiency virus 1, UniProt Q6QLK5)
# Assay: cell-free HIV fusion peptide-binding blockers – biochemical, uHTS, fluorescence dequenching, […] (AID 1986)
# Sequence of Envelope glycoprotein gp160 (Q6QLK5 whole entry, the tested form may be a part): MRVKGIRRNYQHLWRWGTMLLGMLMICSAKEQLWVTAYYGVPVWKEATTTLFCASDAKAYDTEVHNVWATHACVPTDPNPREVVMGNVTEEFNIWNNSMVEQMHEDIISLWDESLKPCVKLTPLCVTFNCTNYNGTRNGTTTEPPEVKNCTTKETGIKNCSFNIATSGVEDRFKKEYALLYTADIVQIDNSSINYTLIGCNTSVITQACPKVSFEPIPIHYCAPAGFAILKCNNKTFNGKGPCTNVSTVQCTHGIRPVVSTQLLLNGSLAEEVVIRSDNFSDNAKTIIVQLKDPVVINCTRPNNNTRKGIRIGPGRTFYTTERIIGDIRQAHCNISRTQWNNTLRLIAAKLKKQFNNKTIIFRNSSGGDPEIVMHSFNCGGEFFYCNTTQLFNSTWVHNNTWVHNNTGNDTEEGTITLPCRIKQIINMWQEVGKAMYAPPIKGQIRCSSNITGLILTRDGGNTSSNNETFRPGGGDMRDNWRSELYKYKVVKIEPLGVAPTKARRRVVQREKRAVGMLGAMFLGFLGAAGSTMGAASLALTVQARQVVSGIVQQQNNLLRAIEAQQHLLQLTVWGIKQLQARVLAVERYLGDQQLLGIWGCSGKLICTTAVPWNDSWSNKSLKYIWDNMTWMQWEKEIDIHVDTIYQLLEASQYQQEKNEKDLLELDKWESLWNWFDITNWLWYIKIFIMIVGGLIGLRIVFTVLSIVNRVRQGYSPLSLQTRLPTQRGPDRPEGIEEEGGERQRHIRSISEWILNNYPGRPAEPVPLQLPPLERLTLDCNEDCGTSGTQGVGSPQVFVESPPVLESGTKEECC
row,Compound,IC50
1,CCOc1cc(/C=C2\C(=N)N3N=C(S(C)(=O)=O)SC3=NC2=O)ccc1OCCOc1cccc(OC)c1,12 µM (active)
2,COc1cc(/C=C2/SC(=S)N(Cc3ccccc3)C2=O)ccc1OCC(=O)O,17.3 µM (active)
3,O=[N+]([O-])c1cc([N+](=O)[O-])c2oc(-c3ccccc3)c(Br)c2c1O,8.02 µM (active)
